Measurements from the METLIN SMRT retention time set (Domingo-Almenara et al. 2019).

Assay: gradient 5% acetonitrile 3 min, to 50% in 2 min, to 85% in 15 min, held 3 min, 100 µL/min
Conditions: column: Zorbax Extend-C18 2.1 x 50 mm; eluents: water / acetonitrile, 0.1% formic acid
Method in brief: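 In both positive and negative ionization mode, a quadrupole time-of-flight mass spectrometer coupled to HPLC analyzed pure standards run in mixtures of ~100 molecules. The Zorbax Extend-C18 column (2.1 × 50 mm, 1.8 μm) was operated at 100 μL/min with water and acetonitrile, each containing 0.1% formic acid. The dead volume was 40 μL and the dwell volume 900 μL. Retention time came from adduct peaks that were computationally picked and individually inspected by hand.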

| SMILES | RP-LC retention time |
| --- | --- |
| COc1ccc(C(=O)NCc2ccc(OCCN(C)C)cc2)cc1OC | 638 s |
| COCC1(F)CCN(Cc2c(-c3cc(C)ccc3C)nc3cc(C)ccn23)CC1 | 636 s |
| COCCCn1c(=O)c2ccccc2n(Cc2nc(-c3ccc(OC)cc3)no2)c1=O | 968 s |
| Cc1ccc(-n2nc(C)c3sc(N4CCCC(C(=O)Nc5cccc(Cl)c5C)C4)nc32)cc1 (stereo unspecified) | 1310 s |
| O=c1ccn(-c2cccc(F)c2)nc1-c1nc(-c2ccc(Br)cc2)no1 | 1000 s |
| COc1ccccc1NC(=O)C1CCCN1S(=O)(=O)c1cc2c(cc1C)NC(=O)CO2 (stereo unspecified) | 808 s |
| Cc1ccc(-n2c(N3CCCC(C(=O)NCc4ccncc4)C3)nc3ccsc3c2=O)cc1 (stereo unspecified) | 627 s |
| Cc1ccc(-c2nnc3ccc(SCC(=O)OCc4ccccc4)nn23)cc1 | 840 s |
| Cn1cc(S(=O)(=O)N2CCC(C(=O)NCc3ccc(F)cc3)CC2)cc1C(=O)N1CCCC1 | 722 s |
| CCOC(=O)c1cccc(Nc2c(-c3ccc(Br)cc3)nc3cnccn23)c1 | 1040 s |
| O=C(c1ccc(Nc2c(-c3ccccc3)nc3cnccn23)cc1)N1CCOCC1 | 655 s |
| Cc1nnc(C2CCCN(C(=O)COc3ccccc3)C2)s1 (stereo unspecified) | 653 s |
| CC(C)C(=O)N1CCc2cc(C(=O)N3CCCC3)ccc21 | 720 s |
| O=S(=O)(c1ccc(-c2noc(-c3ccccc3Cl)n2)cc1)N1CCCC1 | 1200 s |
| Cc1nc(-c2noc(-c3ccncc3)n2)cn1CC(=O)Nc1cccc(Cl)c1 | 760 s |
| Cc1cccc(-c2nnc(-c3nc(NCCc4c(C)noc4C)c4ccccc4n3)o2)c1 | 956 s |
| CCOC(=O)c1sc(NC(=O)CCCC(=O)O)nc1-c1ccccc1 | 770 s |
| O=C(NCCc1ccccc1)N1CCc2nc(-c3ccccc3)ncc2C1 | 860 s |
| CCOC(=O)c1cc2c([nH]c1=O)CC(c1cccc(C)c1)CC2=O (stereo unspecified) | 653 s |
| NC(=O)C1CCN(c2cc(-c3nc(-c4ccccc4)no3)c3ccccc3n2)CC1 | 765 s |
| COCCN1C(=O)[C@H]2CN(Cc3cccnc3)C[C@H]2C1=O | 528 s |
| Cc1nc(-c2ccccc2)cc2nn(CC(=O)Nc3ccc(F)cc3Cl)c(=O)n12 | 967 s |

| SMILES | RP-LC retention time |
| --- | --- |
| Cc1ccc(C(C)NC(=O)Cn2ccc3c(C)nn(C)c3c2=O)cc1C (stereo unspecified) | 784 s |
| Cn1cc(-c2nc(C(=O)NCc3cccc(Cl)c3)cs2)c2cccnc21 | 964 s |
| CCNc1nc(C)cc(N2CCN(C(=O)Nc3cccc(Cl)c3)CC2)n1 | 695 s |
| CCNC(=O)C1c2ccccc2C(=O)N(CC(C)C)C1c1cccs1 (stereo unspecified) | 818 s |
| CCn1cc(C2=CCN(S(=O)(=O)c3cccc(Cl)c3)CC2)c2cccnc21 | 1070 s |
| CC(C)NC(=O)N1CCCC(c2cccc(C(=O)NCCN3CCCCC3C)c2)C1 (stereo unspecified) | 624 s |
| CC(C)CNC(=O)CN1CCN(Cc2ccccc2)C1=O | 717 s |
| CN1C(=O)CCc2cc(NS(=O)(=O)c3ccc(Cl)c(Cl)c3)ccc21 | 1040 s |
| COc1cccc(S(=O)(=O)N2CCC(c3noc(-c4cnccn4)n3)C2)c1 (stereo unspecified) | 788 s |
| COc1ccccc1/C=C/C(=O)/C=C/c1ccccc1O | 772 s |
| CCCC(=O)Nc1nc(-c2ccc3c(c2)N(C)C(=O)CO3)cs1 | 821 s |
| O=C1c2ccccc2NC(c2cc(Cl)cc(Cl)c2O)N1CCc1ccccn1 (stereo unspecified) | 723 s |
| c1cc(-c2nc(-c3ccc4nncn4c3)no2)co1 | 679 s |
| COc1ccc(-c2csc3c(=O)n(Cc4ccc(F)cc4)cnc23)cc1 | 1050 s |
| CC1CCCC(NC(=O)Cn2cnc3c(nc4n3CCCCC4)c2=O)C1C (stereo unspecified) | 711 s |
| CCOc1ccc(NC(=O)Cn2nc3cc(C)nc(N4CCCC4)n3c2=O)cc1 | 765 s |
| Fc1cccc(-c2noc(-c3ccc(NCCCN4CCC(N5CCCCC5)CC4)nc3)n2)c1 | 614 s |
| CCOC(=O)c1c(C)n(C)c2c1cc(O)c1ccccc12 | 945 s |
| Cc1ccc(Nc2c(-c3c(F)cccc3Cl)nc3ccc(Cl)cn23)cc1 | 994 s |
| COc1ccc(N2CCN(C(=O)C3CCCN(c4ncnc5c4nc4n5CCCCC4)C3)CC2)cc1 (stereo unspecified) | 738 s |
| Cc1cc(C)n(-c2ccnc(N3CCc4ccccc43)n2)n1 | 1340 s |
| COc1cc(C(=O)N(C)CCc2noc(C3CCCCC3)n2)cc(OC)c1OC | 814 s |

| SMILES | RP-LC retention time |
| --- | --- |
| O=C1CCCN2N=C(SCc3ccc([N+](=O)[O-])cc3)SC2=N1 | 779 s |
| Cc1ccccc1N1CCN(C(=O)c2cn(-c3cc(N4CCSCC4)ncn3)cn2)CC1 | 1040 s |
| CC(C)NC(=O)c1ccc(OCC2CCN(C(=O)c3ccc(C(F)(F)F)cc3)CC2)cc1 | 935 s |
| O=c1c2cc(-c3ccccc3)nn2ccn1Cc1noc(CN2CCc3ccccc3C2)n1 | 818 s |
| COc1ccc(C(=O)NC2CCN(c3cc(-c4ccc(Cl)cc4)[nH]n3)C2)cn1 (stereo unspecified) | 732 s |
| O=C(NCc1cccnc1)C1(CCO)CCN(c2ncccn2)C1 (stereo unspecified) | 515 s |
| CSc1cccc(NC(=O)N2CCC(C)(C(=O)NCc3ccc(C)cc3)CC2)c1 | 917 s |
| O=c1ccc(-c2ccc(F)cc2)nn1Cc1nc(-c2ccc(F)cc2)no1 | 952 s |
| COc1ccc(N2CC(C(=O)N3CCC(C(=O)Nc4nc(C)cs4)CC3)CC2=O)cc1 (stereo unspecified) | 680 s |
| Cc1cc2nn(CC(=O)Nc3ccccc3)c(=O)n2c(N2CCCC2)n1 | 703 s |
| O=C(c1nc(-c2ccnc(N3CCCCC3)c2)no1)N1CCC2(CC1)OCCO2 | 673 s |
| Cc1cccc(C(=O)N2CCC3(CC2)NC(=O)c2ccc(F)cc2N3C)c1 | 763 s |
| Cc1c(Cl)cccc1NS(=O)(=O)c1cc(-c2nc(C(C)(C)C)cs2)cs1 | 1340 s |
| Cc1oc(-c2[nH]ncc2C(=O)N2CCCCC2)cc1S(=O)(=O)NCc1ccncc1 | 575 s |
| COc1ccc(CN(CCC2(C(C)C)CCOC(C)(C)C2)C(C)=O)cc1OC (stereo unspecified) | 864 s |
| Cn1nc(-c2nnc(-c3ccc(F)cc3)o2)c2c1CCN(S(=O)(=O)c1ccc3c(c1)CCC3)C2 | 1290 s |
| COc1ccc2c(=O)c(Oc3ccc(C(=O)NC4CCS(=O)(=O)C4)cc3)coc2c1 (stereo unspecified) | 687 s |
| O=C(O)c1cc(NS(=O)(=O)c2cccc(F)c2)ccc1N1CCCC(CN2CCCC2)C1 (stereo unspecified) | 594 s |
| CCCN(C)C(=O)C1CCN(c2cnn(CCC)c(=O)c2)CC1 | 669 s |
| CCCNC(=O)N1CC(c2nc(C)no2)C2(CCOCC2)C1 (stereo unspecified) | 634 s |
| CCn1ccc2sc(C)c(C(=O)NCc3cccc(F)c3)c2c1=O | 822 s |
| O=C(Cn1cccc1-c1nc(-c2ccc(Cl)cc2)cs1)N1CCOCC1 | 1040 s |
